Legend:
[1] = tested on: Echinochloa oryzoides (Ard.) Fritsch.; experiment: Preemergence weed control under flooded paddy conditions, ECHORC (Watergrass (Calif.)); format: in vivo; conditions: preemergence, flooded paddy; for herbicidal effect rating, ECHORC: meaning of each grade not given here
[2] = tested on: Cyperus iria; experiment: Preemergence weed control under flooded paddy conditions, CYPIR (Rice Flatsedge); format: in vivo; conditions: preemergence, flooded paddy; for herbicidal effect rating, CYPIR: meaning of each grade not given here
[3] = tested on: Cyperus serotinus, Rottb.; experiment: Preemergence weed control under flooded paddy conditions, CYPSE (Flatsedge); format: in vivo; conditions: preemergence; for herbicidal effect rating, CYPSE: meaning of each grade not given here
[4] = tested on: Monochoria vaginalis, Presl.; experiment: Preemergence weed control under flooded paddy conditions, MOOVA (Monochoria); format: in vivo; conditions: preemergence, flooded paddy; for herbicidal effect rating, MOOVA: meaning of each grade not given here
[5] = tested on: Sagittaria pygmaea, L.; experiment: Preemergence weed control under flooded paddy conditions, SAGPY (Arrowhead (Pygmaea)); format: in vivo; conditions: preemergence, flooded paddy; for herbicidal effect rating, SAGPY: meaning of each grade not given here
[6] = tested on: Oryza sativa, (L.) Tebonnet; experiment: Rice tolerance to post-transplant applications under flooded paddy conditions (Example 187), ORYSAT (Rice, Tebonnet); for herbicidal effect rating ORYSAT: meaning of each grade not given here
[7] = 0.0320 kg/ha, rated three to four weeks after treatment
[8] = 0.0620 kg/ha, rated three to four weeks after treatment
[9] = 0.1250 kg/ha, rated three to four weeks after treatment
[10] = 0.2500 kg/ha, rated three to four weeks after treatment
[11] = Rate 0.0320 kg/ha, rated 3-4 weeks after treatment
[12] = Rate 0.0620 kg/ha, rated 3-4 weeks after treatment
[13] = Rate 0.1250 kg/ha, rated 3-4 weeks after treatment
[14] = Rate 0.2500 kg/ha, rated 3-4 weeks after treatment
[15] = Rate 0.0320 kg/ha, rated three to four weeks after treatment
[16] = Rate 0.0620 kg/ha, rated three to four weeks after treatment
[17] = Rate 0.1250 kg/ha, rated three to four weeks after treatment
[18] = Rate 0.2500 kg/ha, rated three to four weeks after treatment

C=CCOC(=O)C(C)(C)c1nsc2ccc(-n3c(=O)cc(C(F)(F)F)n(C)c3=O)cc12 [Example 491, 1,2-Benzisothiazole-3-acetic acid, 5-[3,6-dihydro-3-methyl-2,6-dioxo-4-(trifluoromethyl)-1(2H)-pyrimidinyl]-alpha,alpha-dimethyl-, allyl ester]
8.0: ORYSAT herbicidal rating (rice tolerance) [6, 9]
5.0: SAGPY herbicidal rating [5, 7] | ORYSAT herbicidal rating (rice tolerance) [6, 7]
7.0: CYPSE herbicidal rating [3, 7]
9.0: ECHORC herbicidal rating [1, 7] | ECHORC herbicidal rating [1, 8] | ECHORC herbicidal rating [1, 9] | ECHORC herbicidal rating [1, 10] | CYPIR herbicidal rating [2, 8] | CYPIR herbicidal rating [2, 9] | CYPIR herbicidal rating [2, 10] | CYPSE herbicidal rating [3, 8] | CYPSE herbicidal rating [3, 9] | CYPSE herbicidal rating [3, 10] | MOOVA herbicidal rating [4, 7] | MOOVA herbicidal rating [4, 8] | MOOVA herbicidal rating [4, 9] | MOOVA herbicidal rating [4, 10] | SAGPY herbicidal rating [5, 9] | SAGPY herbicidal rating [5, 10]
5.5: SAGPY herbicidal rating [5, 8]
7.5: CYPIR herbicidal rating [2, 7] | ORYSAT herbicidal rating (rice tolerance) [6, 10]
6.5: ORYSAT herbicidal rating (rice tolerance) [6, 8]

Cc1nsc2ccc(-n3c(=O)cc(C(F)(F)F)n(CCF)c3=O)cc12 [Example 516, 2,4(1H,3H)-Pyrimidinedione, 1-(2-fluoroethyl)-3-(3-methyl-1,2-benzisothiazol-5-yl)-6-(trifluoromethyl)-]
2.0: herbicidal effect rating, CYPIR [2, 14] | herbicidal effect rating ORYSAT [6, 13]
6.0: herbicidal effect rating, MOOVA [4, 12]
3.0: herbicidal effect rating ORYSAT [6, 14]
8.0: herbicidal effect rating, MOOVA [4, 13]
4.0: herbicidal effect rating, MOOVA [4, 11]
1.0: herbicidal effect rating ORYSAT [6, 12]
0.0: herbicidal effect rating, ECHORC [1, 11] | herbicidal effect rating, ECHORC [1, 12] | herbicidal effect rating, ECHORC [1, 13] | herbicidal effect rating, ECHORC [1, 14] | herbicidal effect rating, CYPIR [2, 11] | herbicidal effect rating, CYPIR [2, 12] | herbicidal effect rating, CYPIR [2, 13] | herbicidal effect rating, CYPSE [3, 11] | herbicidal effect rating, CYPSE [3, 12] | herbicidal effect rating, CYPSE [3, 13] | herbicidal effect rating, CYPSE [3, 14] | herbicidal effect rating, SAGPY [5, 11] | herbicidal effect rating, SAGPY [5, 12] | herbicidal effect rating, SAGPY [5, 13] | herbicidal effect rating, SAGPY [5, 14] | herbicidal effect rating ORYSAT [6, 11]
9.0: herbicidal effect rating, MOOVA [4, 14]

Cn1c(C(F)(F)F)cc(=O)n(-c2cc3c(CBr)nsc3cc2F)c1=O [Example 376, 2,4(1H,3H)-Pyrimidinedione, 3-[3-(bromomethyl)-6-fluoro-1,2-benzisothiazol-5-yl]-1-methyl-6-(trifluoromethyl)-]
6.0: herbicidal effect rating ORYSAT [6, 16] | herbicidal effect rating ORYSAT [6, 17]
9.0: herbicidal effect rating, ECHORC [1, 18] | herbicidal effect rating, CYPIR [2, 17] | herbicidal effect rating, CYPIR [2, 18] | herbicidal effect rating, MOOVA [4, 15] | herbicidal effect rating, MOOVA [4, 16] | herbicidal effect rating, MOOVA [4, 17] | herbicidal effect rating, MOOVA [4, 18] | herbicidal effect rating, SAGPY [5, 17] | herbicidal effect rating, SAGPY [5, 18]
4.0: herbicidal effect rating, CYPSE [3, 16] | herbicidal effect rating ORYSAT [6, 15]
6.5: herbicidal effect rating, ECHORC [1, 17]
3.0: herbicidal effect rating, ECHORC [1, 15] | herbicidal effect rating, CYPIR [2, 15] | herbicidal effect rating, CYPSE [3, 15]
8.5: herbicidal effect rating, SAGPY [5, 16] | herbicidal effect rating ORYSAT [6, 18]
5.5: herbicidal effect rating, ECHORC [1, 16] | herbicidal effect rating, CYPSE [3, 17]
8.0: herbicidal effect rating, CYPIR [2, 16] | herbicidal effect rating, CYPSE [3, 18] | herbicidal effect rating, SAGPY [5, 15]

C=CCOc1c(I)cc(C)cc1-c1nsc2ccc(-n3c(=O)cc(C(F)(F)F)n(C)c3=O)cc12 [Example 505, 2,4(1H,3H)-Pyrimidinedione, 3-{3-[6-(allyloxy)-5-iodo-m-tolyl]-1,2-benzisothiazol-5-yl}-1-methyl-6-(trifluoromethyl)-]
6.0: ECHORC herbicidal rating [1, 7] | ECHORC herbicidal rating [1, 8] | ORYSAT herbicidal rating (rice tolerance) [6, 10]
4.0: CYPIR herbicidal rating [2, 10] | SAGPY herbicidal rating [5, 10] | ORYSAT herbicidal rating (rice tolerance) [6, 7] | ORYSAT herbicidal rating (rice tolerance) [6, 8] | ORYSAT herbicidal rating (rice tolerance) [6, 9]
7.0: ECHORC herbicidal rating [1, 9] | MOOVA herbicidal rating [4, 7] | MOOVA herbicidal rating [4, 8] | MOOVA herbicidal rating [4, 9]
2.0: SAGPY herbicidal rating [5, 8] | SAGPY herbicidal rating [5, 9]
3.0: CYPIR herbicidal rating [2, 9]
8.0: MOOVA herbicidal rating [4, 10]
9.0: ECHORC herbicidal rating [1, 10]
0.0: CYPIR herbicidal rating [2, 7] | CYPSE herbicidal rating [3, 8] | CYPSE herbicidal rating [3, 9] | SAGPY herbicidal rating [5, 7]

C=CS(=O)(=O)NC(=O)C(C)Oc1ccc(C)cc1-c1nsc2ccc(-n3c(=O)cc(C(F)(F)F)n(C)c3=O)cc12 (stereo not drawn) [Example 570, Propionamide, 2-{{2-{5-[3,6-dihydro-3-methyl-2,6-dioxo-4-(trifluoromethyl)-1(2H)-pyrimidinyl]-1,2-benzisothiazol-3-yl}-p-tolyl}oxy}-N-(vinylsulfonyl)-]
0.0: herbicidal effect rating, ECHORC [1, 15] | herbicidal effect rating, CYPIR [2, 15] | herbicidal effect rating, CYPIR [2, 16] | herbicidal effect rating, CYPIR [2, 17] | herbicidal effect rating, CYPSE [3, 15] | herbicidal effect rating, CYPSE [3, 16] | herbicidal effect rating, CYPSE [3, 17] | herbicidal effect rating, CYPSE [3, 18] | herbicidal effect rating, MOOVA [4, 15] | herbicidal effect rating, MOOVA [4, 16] | herbicidal effect rating, MOOVA [4, 17] | herbicidal effect rating, SAGPY [5, 15] | herbicidal effect rating, SAGPY [5, 16] | herbicidal effect rating, SAGPY [5, 17] | herbicidal effect rating, SAGPY [5, 18] | herbicidal effect rating ORYSAT [6, 15]
1.0: herbicidal effect rating ORYSAT [6, 16]
9.0: herbicidal effect rating, CYPIR [2, 18] | herbicidal effect rating, MOOVA [4, 18]
6.0: herbicidal effect rating, ECHORC [1, 18]
4.0: herbicidal effect rating, ECHORC [1, 17]
2.0: herbicidal effect rating, ECHORC [1, 16] | herbicidal effect rating ORYSAT [6, 17]
3.0: herbicidal effect rating ORYSAT [6, 18]

Source: patent publication EP0908457B1, “3-(1,2-benzisothiazol- and isoxazol-5-Y1)-2,4(1H,3H)-pyrimidinedione or thione and 3-(1,2-benzisothiazol- and isoxazol-5-y1)-4(3H)-pyrimidinone or thione herbicidal agents” (BASF AKTIENGESELLSCHAFT, priority 1997, dated 1999)
